Test results from patent US9572814B2, “Methods of improving the pharmacokinetics of doxepin” (Pernix Sleep, Inc., priority 2006, dated 2017).
Like-named read-outs stand apart in the source and are kept apart here.

Key:
clinical = conditions: both, human, plasma, po, 6 milligram
[1] = calculated from geometric LS means, single 6 milligram dose
[2] = plasma, single 6 milligram doxepin tablet, fasted (N = 15)
[3] = plasma, single 6 milligram doxepin tablet, fed (N = 16)
[4] = ratio of geometric LS means, 6 milligram doxepin tablet
[5] = single 6 milligram doxepin tablet, fasted (N 15)
[6] = single 6 milligram doxepin tablet, fed (N 16)
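Note: healthy young adult men and women, dosed in the morning. Doxepin in plasma by validated HPLC-MS/MS (LLOQ 0.05 ng/mL), parameters by noncompartmental analysis on actual elapsed time after dosing.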

- Cmax (clinical): 0.854 ng/mL
- Tmax (clinical): 3 h
- time postdose at which detectable plasma levels were first observed (both fed and fasted states (six and five subjects, respectively)): 30 min
- time postdose up to which plasma doxepin concentrations remained quantifiable (both treatments (fed and fasted), lower limit of quantification 0.05 ng/mL): up to 48 hours
- AUC0-∞, Effect of Food (% of fasted state) [1]: 141 % of fasted state
- Cmax, Effect of Food (% of fasted state) [1]: 115 % of fasted state
- Tmax, Effect of Food (% of fasted state) (median Tmax, single 6 milligram dose): 200 % of fasted state
- AUC0-Tlast, arithmetic mean [2]: 12.6 ng·h/mL
- AUC0-∞, arithmetic mean [2]: 14.1 ng·h/mL
- t1/2, arithmetic mean [2]: 14.4 h
- λz, arithmetic mean [2]: 0.0623 h⁻¹
- Cmax, arithmetic mean [3]: 0.951 ng/mL
- Tmax, median [3]: 6.0 h
- λz, arithmetic mean [3]: 0.0445 h⁻¹
- AUC0-Tlast, Pairwise Comparison Ratio Fed/Fasted [4]: 145.6%
- AUC0-∞, Pairwise Comparison Ratio Fed/Fasted [4]: 141.3%
- Cmax, Pairwise Comparison Ratio Fed/Fasted [4]: 114.6%
- increase in AUC0-Tlast under fed conditions compared to fasted conditions (single 6 milligram dose): 46%
- mean CL/F lower in the fed state compared to the fasted state (single 6 milligram dose): 43%
- mean Vd/F lower in the fed state compared to the fasted state (single 6 milligram dose): 14%
- time postdose by which all subjects had detectable concentrations (single 6 milligram dose): ≤ 90 min
- time postdose at which mean plasma concentrations reach Cmax (single 6 milligram dose, fasted state (Treatment A)): 3.0 h
- time postdose at which mean plasma concentrations reach Cmax (single 6 milligram dose, fed state (Treatment B)): 6.0 h
- AUC0-Tlast, Geometric LS Mean [5]: 9.194 ng·h/mL
- AUC0-∞, Geometric LS Mean [5]: 10.72 ng·h/mL
- Cmax, Geometric LS Mean [5]: 0.717 ng/mL
- CL/F, arithmetic mean (single 6 milligram doxepin tablet, fasted (N = 15)): 837 L/h
- AUC0-Tlast, Geometric LS Mean [6]: 13.39 ng·h/mL
- AUC0-∞, Geometric LS Mean [6]: 15.14 ng·h/mL
- Cmax, Geometric LS Mean [6]: 0.822 ng/mL
- CL/F, arithmetic mean (single 6 milligram doxepin tablet, fed (N = 16)): 477 L/h
Compound: CN(C)CCC=C1c2ccccc2COc2ccccc21 [doxepin]
